Measurements from ChEMBL document CHEMBL3297680, “Pharmacophore based virtual screening, molecular docking and biological evaluation to identify novel PDE5 inhibitors with vasodilatory activity” (Bioorg Med Chem Lett, 2014).

Biological target: cGMP-specific 3',5'-cyclic phosphodiesterase (Homo sapiens, UniProt O76074)
Test: Inhibition of PDE5 (unknown origin)

Structure (SMILES)	IC50 [nM]
CC(C)CCc1nc2c([nH]1)C(=O)N(C)C1=N[C@@H]3CCC[C@@H]3N12	50
CCCCCCc1nc2c([nH]1)C(=O)N(C)C1=N[C@@H]3CCC[C@@H]3N12	10
Cc1nc2c([nH]1)C(=O)N(C)C1=N[C@@H]3CCC[C@@H]3N12	2400
CN1C(=O)c2c(nc(Cc3ccccc3)n2Cc2ncc[nH]2)N2C1=N[C@@H]1CCC[C@@H]12	4000
CCCCCCc1nc2c(n1Cc1ccccc1)C(=O)N(C)C1=N[C@@H]3CCC[C@@H]3N12	800
CN1C(=O)c2[nH]c(C(F)(F)F)nc2N2C1=N[C@@H]1CCC[C@@H]12	6200
CN1C(=O)c2[nH]c(C#Cc3ccccc3)nc2N2C1=N[C@@H]1CCC[C@@H]12	6000
CN1C(=O)c2c(nc(-c3ccccc3)n2Cc2ccccc2)N2CC3(CCCC3)N=C12	11
CN1C(=O)c2c(nc(Cc3ccccc3)n2Cc2ccccc2)N2C1=N[C@@H]1CCC[C@@H]12	180
CN1C(=O)c2c(nc(C#Cc3ccccc3)n2Cc2ccccc2)N2C1=N[C@@H]1CCC[C@@H]12	4
CN1C(=O)c2c(nc(CC3CCCC3)n2Cc2ccccc2)N2CC3(CCCC3)N=C12	120
CN1C(=O)c2c(nc(Cc3ccccc3)n2CCO)N2C1=N[C@@H]1CCC[C@@H]12	10000
CN1C(=O)c2c(nc(CN3CCCC3)n2Cc2ccccc2)N2C1=N[C@@H]1CCC[C@@H]12	1200
CN1C(=O)c2c(nc(Cc3ccccc3)n2CC2CCCCC2)N2C1=N[C@@H]1CCC[C@@H]12	110
CN1C(=O)c2c(nc(Cc3ccccc3)n2Cc2cccc(O)c2O)N2C1=N[C@@H]1CCC[C@@H]12	200
CN1C(=O)c2c(nc(Cc3ccc(-c4ccccc4)cc3)n2Cc2ccccc2)N2C1=N[C@@H]1CCC[C@@H]12	305
CN1C(=O)c2[nH]c(CN3CCCC3)nc2N2C1=N[C@@H]1CCC[C@@H]12	16000
CN1C(=O)c2[nH]c(CC3CCCCC3)nc2N2C1=N[C@@H]1CCC[C@@H]12	19
CN1C(=O)c2[nH]c(CC3CCCC3)nc2N2CC3(CCCC3)N=C12	26
CN1C(=O)c2[nH]c(-c3ccccc3)nc2N2CC3(CCCC3)N=C12	3300
CN1C(=O)c2c(nc(Cc3ccc(-c4ccccc4)cc3)n2Cc2ccccc2)N2CC3(CCCC3)N=C12	200
CN1C(=O)c2c(nc(Cc3ccccc3)n2C)N2CC3(CCCC3)N=C12	4500
CN(C)Cc1nc2c(n1Cc1ccccc1)C(=O)N(C)C1=N[C@@H]3CCC[C@@H]3N12	5600
CN1C(=O)c2[nH]c(CC3CC3)nc2N2C1=N[C@@H]1CCC[C@@H]12	610
CN1C(=O)c2c(nc(CC3CC3)n2Cc2ccccc2)N2C1=N[C@@H]1CCC[C@@H]12	420
CN1C(=O)c2c(nc(C(F)(F)F)n2Cc2ccccc2)N2C1=N[C@@H]1CCC[C@@H]12	400
CN1C(=O)c2[nH]c(Cc3ncc[nH]3)nc2N2C1=N[C@@H]1CCC[C@@H]12	26000
CN1C(=O)c2c(nc(Cc3ccccc3)n2Cc2ccccc2)N2CC3(CCCC3)N=C12	120
COCc1nc2c([nH]1)N1C(=N[C@@H]3CCC[C@@H]31)N(C)C2=O	13000
CN1C(=O)c2[nH]c(Cc3ccccc3)nc2N2CC3(CCCC3)N=C12	19

The next lines start with the values.

IC50 [nM]	Structure (SMILES)
4300	CN1C(=O)c2c(nc(Cc3ccccc3)n2Cc2cccnc2)N2C1=N[C@@H]1CCC[C@@H]12
2900	Cc1nc2c(n1Cc1ccccc1)N1CC3(CCCC3)N=C1N(C)C2=O
1500	CN1C(=O)c2c(nc(Cc3ncc[nH]3)n2Cc2ccccc2)N2C1=N[C@@H]1CCC[C@@H]12
1000	COCc1nc2c(n1Cc1ccccc1)C(=O)N(C)C1=N[C@@H]3CCC[C@@H]3N12
800	CCCc1nc2c([nH]1)N1C(=N[C@@H]3CCC[C@@H]31)N(C)C2=O
590	CN1C(=O)c2c(nc(CC3CCCCC3)n2Cc2ccccc2)N2C1=N[C@@H]1CCC[C@@H]12
560	CC(C)CCc1nc2c(n1Cc1ccccc1)C(=O)N(C)C1=N[C@@H]3CCC[C@@H]3N12
510	CCCc1nc2c(n1Cc1ccccc1)C(=O)N(C)C1=N[C@@H]3CCC[C@@H]3N12
275	CN1C(=O)c2c(nc(CC3CCCC3)n2Cc2ccccc2)N2C1=N[C@@H]1CCC[C@@H]12
240	Cc1nc2c([nH]1)C(=O)N(C(C)C)C1=N[C@@H]3CCC[C@@H]3N12
225	Cc1nc2c(n1Cc1ccccc1)C(=O)N(C)C1=N[C@@H]3CCC[C@@H]3N12
100	CCN1C(=O)c2[nH]c(C)nc2N2C1=N[C@@H]1CCC[C@@H]12
66	CN1C(=O)c2[nH]c(Cc3ccc(-c4ccccc4)cc3)nc2N2C1=N[C@@H]1CCC[C@@H]12
43	CN1C(=O)c2[nH]c(Cc3ccc(-c4ccccc4)cc3)nc2N2CC3(CCCC3)N=C12
34	CN1C(=O)c2[nH]c(CC3CCCC3)nc2N2C1=N[C@@H]1CCC[C@@H]12

Tested on: Aorta
Test: Vasodilatory activity in phenylephrine-induced pre-contracted Wistar rat aortic ring assessed as relaxation at 10 '-2 M
Type: functional
Set-up: scale not given: the % may be the effect or the level left

Structure (SMILES)	Activity [%]
CCCc1nn(C)c2c(=O)[nH]c(-c3cc(S(=O)(=O)N4CCN(C)CC4)ccc3OCC)nc12	50
CCCCC(=O)c1cc(OC)cc(OC)c1	50
CCOC(=O)c1cnc2nc(N)ccc2c1O	50

Tested on: Aorta
Test: Vasodilatory activity in phenylephrine-induced pre-contracted Wistar rat aortic ring assessed as relaxation at 10 '-5 M
Type: functional
Set-up: scale not given: the % may be the effect or the level left

Structure (SMILES)	Activity [%]
CCCc1nn(C)c2c(=O)[nH]c(-c3cc(S(=O)(=O)N4CCN(C)CC4)ccc3OCC)nc12	50
CCCCC(=O)c1cc(OC)cc(OC)c1	50
CCOC(=O)c1cnc2nc(N)ccc2c1O	50

Tested on: Aorta
Test: Vasodilatory activity in phenylephrine-induced pre-contracted Wistar rat aortic ring assessed as relaxation at 10 '-4 M
Type: functional
Set-up: scale not given: the % may be the effect or the level left

Structure (SMILES)	Activity [%]
CCCCC(=O)c1cc(OC)cc(OC)c1	50
CC(CC/N=C/c1ccccc1O)/N=C/c1ccccc1O (centres undefined)	50

Tested on: Aorta
Test: Vasodilatory activity in phenylephrine-induced pre-contracted Wistar rat aortic ring assessed as relaxation at 10 '-6 M
Type: functional
Set-up: scale not given: the % may be the effect or the level left

Structure (SMILES)	Activity [%]
CCCCC(=O)c1cc(OC)cc(OC)c1	50
